Test results taken from patent US20130072459A1, “PHARMACEUTICAL COMPOSITION FOR THE PREVENTION OR THE TREATMENT OF NON-ALCOHOLIC FATTY LIVER DISEASE AND THE METHOD FOR PREVENTION OR TREATMENT OF NON-ALCOHOLIC FATTY LIVER DISEASE USING THE SAME” (priority 2010, published 2013).

Experiments:
HepG2 cells = test: Free fatty acid-induced intracellular fat accumulation, Nile Red staining; assay type: cell-based, human; conditions: for free fatty acid-induced fat accumulation in hepatocytes, result in words: FIG. 10; for inhibition at 1 µM: Homo sapiens, HepG2, 0.5 mM free fatty acid, 24 hours, read-out: inhibitory effects on free fatty acid-induced fat accumulation
Procedure: By a combined treatment of free fatty acid and a drug, inhibitory effects of individual drugs on intracellular fat accumulation were quantified using a triglyceride staining method. The human hepatoma cell line, HepG2 cells were cultured in a minimum essential medium (MEM) containing 10(v/v) % fetal bovine serum for 48 hours. […] For the negative control group, a MEM containing 1(v/v) % bovine serum albumin was treated with 0.1(v/v) % dimethyl sulfoxide with no addition of free fatty acid. After the culture was complete, the medium was removed and the cells were washed with a phosphate buffer. […] After the staining was complete, the supernatant was discarded and replaced with a phosphate buffer, followed by measurement of fluorescence intensities under conditions of a 488 nm excitation wavelength and a 550 nm emission wavelength. Then, in order to correct a deviation according to the cell count, a phosphate buffer containing 10 μM resazurin (Sigma) dissolved therein was added to the same well. Thereafter, before and after the reaction at 37° C. for 1 hour under light-shielded conditions, fluorescence intensities were measured using a fluorometer under conditions of a 535 nm excitation wavelength and a 580 nm emission wavelength, whereby an increase in fluorescence intensity due to resorufin reduced and formed by the intracellular mitochondrial activity was measured. Using the value of a fluorescence intensity of Nile Red corrected in terms of an increase in fluorescence intensity due to the reduction of resazurin, the experimental results were expressed as a percentage for the fat accumulation increased by a treatment with free fatty acid, as compared to the negative control group.

[1] = tested on: high fat diet-induced simple steatosis; test: Preventive effects on high fat diet-induced simple steatosis in mice (drug-mixed diet, 8/16/24 weeks); assay type: in vivo, C57BL/6 mice; conditions: for serum alanine aminotransferase (ALT), result in words: at 16 weeks and 24 weeks; for serum alanine aminotransferase (ALT), result in words / hepatic triglyceride content, result in words: vs high fat diet-fed group; for hepatic triglyceride content, result in words: hepatic triglyceride analysis and histological analysis
Procedure: 6-week old male C57BL/6 mice were stabilized and then divided into 5 groups. One group was given a standard diet containing 10% fat (trade name: D12450B, manufactured by Research Diets), and one group was given a high fat diet containing 60% fat (trade name: D12492, manufactured by Research Diets). Remaining 3 groups as drug-treated groups were given a drug-mixed diet specially formulated by mixing a high fat diet and a drug. With regard to tartrate of Compound 1, in order to supply 100 mg/kg and 300 mg/kg which are daily target doses of tartrate of Compound 1 based on the daily average high fat diet consumption amount, diets were formulated by mixing a high fat diet and 0.2% by weight and 0.5% by weight of tartrate of Compound 1, respectively. With regard to sitagliptin phosphate, in order to supply 300 mg/kg which is a daily target dose based on the daily average high fat diet consumption amount, a diet was formulated by mixing a high fat diet and about 0.5% by weight of sitagliptin phosphate. Individual drug-treated groups were given the drug-mixed diets thus formulated. 8 weeks, 16 weeks, and 24 weeks after a supply of each diet, animals were dissected and sera were separated. Then, serum ALT levels (alanine aminotransferase, GPT, glutamic pyruvate transaminase) were measured using a blood analyzer (Table 1 and FIG. 1). The excised liver was homogenized in a 5(v/v) % Triton-X solution, and a triglyceride working reagent [which was prepared by mixing a free glycerol reagent (F6428, Sigma) and a triglyceride reagent (T2449, Sigma) in a ratio of 4:1(v/v)] was added thereto, followed by measurement of an absorbance at 540 nm to determine the content of triglyceride (Table 1 and FIG. 2). In addition, in order to observe histological fat distribution, a portion of the excised liver was fixed in a 10(v/v) % formalin solution and then a tissue sample was prepared, followed by hematoxylin & eosin staining and photographing using an image analysis program (computerized image analysis) (FIG. 3, the violet-stained portion represents a normal liver tissue, and white-stained portion represents lipid droplets).

TGF-β1 = TGF-β1 mRNA expression in liver, CCl4-induced acute hepatic damage mouse model; assay type: in vivo, C57BL/6 mice; conditions: for TGF-β1 expression inhibition rate (% CCl4 control group) / TGF-β1 expression (normalized by actin): 3 days; for TGF-β1 expression (normalized by actin): CCl4 0.1 ml/kg i.p.; for maximum decrement in TGF-β1 mRNA expression of the liver relative to the CCl4 control group: maximum over the doses tested; for expression of TGF-β1 mRNA of the liver, result in words: vs CCl4 group
Procedure: In order to investigate inhibitory effects of compounds of the present invention on expression of TGF-β1 which is known to play a crucial role in a fibrosis process of hepatocytes in a CCl4-induced acute hepatic damage mouse model, the following experiment was carried out. 7-week old male C57BL/6 mice were stabilized and divided into 9 groups (n=7) according to the body weight, followed by intraperitoneal administration of CCl4 (0.1 ml/kg). The normal control group was administered an olive oil. The control group was orally administered a vehicle solution (0.5% MC) once a day at a dose of 10 ml/kg, at intervals of 24 hours for 3 days. The remaining groups were orally administered once a day tartrate of Compound 1 at doses of 30, 100 and 300 mg/kg, sitagliptin phosphate (prepared according to the method described in WO2004/085378 or WO2005/003135) at doses of 100 and 300 mg/kg, and vildagliptin (Trademax, China) at doses of 100 and 300 mg/kg, respectively, according to the designated groups. 1 hour after the final oral administration, animals were dissected and the excised liver was subjected to evaluation of TGF-β1 mRNA expression. The liver tissue stored in liquid nitrogen was homogenized in a TRIZOL solution and then the total RNAs were extracted. The isolated RNAs were diluted to a concentration of 1 μg/μL in 0.1(v/v) % DEPC (diethyl pyrocarbonate), and then the RNA mixture [2 μg/μL each RNA+2 μL of 0.5 μg/μL oligo d(T)15+up to 15 μL of 0.1% DEPC water] was incubated using a PCR apparatus at 72° C. for 5 minutes, followed by quenching on ice. The mixture [1 μL of PCR nucleotide mix+5 μL of 5×MMLV RT bf.(Promega, M531A)+1 μL of […] M-MLV reverse] was prepared, and then subjected to elongation at 42° C. for 60 minutes, denaturation at 95° C. for 5 minutes and quenching at 8° C. to synthesize cDNAs which were stored at −20° C. until subsequent use. In order to carry out RT-PCR, the mixture [1 μL of 20 pmol each Primer+9.5 μL of Nuclease-free water] was prepared and then 2 μL of each cDNA was placed in sterile PCR tubes to which 12.5 μL of remix Taq™ (RR003A, TaKaRa) was then added, followed by mixing. PCR was carried out under the following conditions (Table 4), using Thermal Cycler (PTC-200, MJ Research). PCT products were electrophoresed and analyzed using an Image Analyzer (Vilber Lourmat). Using β-actin expression, the expression of a target gene TGF-β1 was subjected to normalization (FIG. 11).

[2] = 8 weeks, high fat diet + 0.2% drug (target 100 mg/kg/day)
[3] = 8 weeks, high fat diet + 0.5% drug (target 300 mg/kg/day)
[4] = 16 weeks, high fat diet + 0.2% drug (target 100 mg/kg/day)
[5] = 16 weeks, high fat diet + 0.5% drug (target 300 mg/kg/day)
[6] = 24 weeks, high fat diet + 0.2% drug (target 100 mg/kg/day)
[7] = 24 weeks, high fat diet + 0.5% drug (target 300 mg/kg/day)

Row | Compound | free fatty acid-induced fat accumulation in hepatocytes, result in words (HepG2 cells) | inhibition at 1 µM (HepG2 cells) | Hepatic TG [1, 3] | Plasma ALT [1, 3] | Hepatic TG [1, 5] | Plasma ALT [1, 5] | Hepatic TG [1, 7] | Plasma ALT [1, 7] | serum alanine aminotransferase (ALT), result in words [1] | hepatic triglyceride content, result in words [1] | TGF-β1 expression inhibition rate (% CCl4 control group) (TGF-β1; 100 mg/kg oral once a day) | TGF-β1 expression (normalized by actin) (TGF-β1; 100 mg/kg oral once a day) | TGF-β1 expression inhibition rate (% CCl4 control group) (TGF-β1; 300 mg/kg oral once a day) | TGF-β1 expression (normalized by actin) (TGF-β1; 300 mg/kg oral once a day) | maximum decrement in TGF-β1 mRNA expression of the liver relative to the CCl4 control group (TGF-β1) | expression of TGF-β1 mRNA of the liver, result in words (TGF-β1) | further results
1 | CC(C)(C)OC[C@@H]1C(=O)NCCN1C(=O)C[C@H](N)Cc1cc(F)c(F)cc1F [tartrate of Compound 1, (R)-4-[(R)-3-amino-4-(2,4,5-trifluorophenyl)-butanoyl]-3-(t-butoxymethyl)piperazin-2-one] | dose-dependent inhibition | 28.7 ± 3.2% | 7.4 ± 2.0 mg/g wet liver | 39.3 ± 3.6 U/L | 15.8 ± 2.0 mg/g wet liver | 27.5 ± 1.5 U/L | 15.1 ± 3.5 mg/g wet liver | 43.8 ± 4.3 U/L | significant decreases | significant decrease | 128% | 0.93 ± 0.10 | 100% | 1.00 ± 0.13 | 135% | normalization | Hepatic TG [1, 2]: 15.5 ± 2.0 mg/g wet liver; Plasma ALT [1, 2]: 20.6 ± 0.9 U/L; Hepatic TG [1, 4]: 21.5 ± 0.7 mg/g wet liver; Plasma ALT [1, 4]: 20.5 ± 1.2 U/L; Hepatic TG [1, 6]: 38.2 ± 5.8 mg/g wet liver; Plasma ALT [1, 6]: 37.5 ± 4.2 U/L; TGF-β1 expression inhibition rate (% CCl4 control group) (TGF-β1; 30 mg/kg oral once a day): 135%; TGF-β1 expression (normalized by actin) (TGF-β1; 30 mg/kg oral once a day): 0.92 ± 0.13
2 | N[C@@H](CC(=O)N1CCn2c(nnc2C(F)(F)F)C1)Cc1cc(F)c(F)cc1F [sitagliptin phosphate, sitagliptin] | dose-dependent inhibition | 28.7 ± 3.2% | 11.8 ± 2.7 mg/g wet liver | 26.5 ± 1.8 U/L | 10.0 ± 1.2 mg/g wet liver | 22.2 ± 1.3 U/L | 36.8 ± 6.6 mg/g wet liver | 27.0 ± 1.7 U/L | significant decreases | significant decrease | 41% | 1.13 ± 0.19 | −17% | 1.26 ± 0.13 | 41% | decreased expression | –
